Laboratory results published in patent US20250282794A1 (CURADEV PHARMA LTD, priority 2022, published 2025).

These molecules were tested against recombinant full length HPK-1 enzyme (Homo sapiens (Human), UniProt Q92918) (assay: HPK-1 biochemical enzyme assay (ADP-Glo kinase inhibition)). Settings: recombinant full length HPK-1 6.8 nM, 10 μM ATP, 12.5 μM MBP, 30 mins at 25° C.
Method in brief: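 ADP-Glo readout of ADP formed after a 30 min, 25° C. reaction of 6.8 nM full-length HPK-1 with swine myelin basic protein (12.5 μM) and ATP (10 μM) in Tris pH 7.4 buffer with MgCl2, DTT and BSA. Ten compound concentrations tested; percent inhibition set against vehicle (0%) and no-enzyme (100%) controls gave IC50.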

recombinant full length HPK-1 enzyme, sequence (Q92918 whole entry, species assumed): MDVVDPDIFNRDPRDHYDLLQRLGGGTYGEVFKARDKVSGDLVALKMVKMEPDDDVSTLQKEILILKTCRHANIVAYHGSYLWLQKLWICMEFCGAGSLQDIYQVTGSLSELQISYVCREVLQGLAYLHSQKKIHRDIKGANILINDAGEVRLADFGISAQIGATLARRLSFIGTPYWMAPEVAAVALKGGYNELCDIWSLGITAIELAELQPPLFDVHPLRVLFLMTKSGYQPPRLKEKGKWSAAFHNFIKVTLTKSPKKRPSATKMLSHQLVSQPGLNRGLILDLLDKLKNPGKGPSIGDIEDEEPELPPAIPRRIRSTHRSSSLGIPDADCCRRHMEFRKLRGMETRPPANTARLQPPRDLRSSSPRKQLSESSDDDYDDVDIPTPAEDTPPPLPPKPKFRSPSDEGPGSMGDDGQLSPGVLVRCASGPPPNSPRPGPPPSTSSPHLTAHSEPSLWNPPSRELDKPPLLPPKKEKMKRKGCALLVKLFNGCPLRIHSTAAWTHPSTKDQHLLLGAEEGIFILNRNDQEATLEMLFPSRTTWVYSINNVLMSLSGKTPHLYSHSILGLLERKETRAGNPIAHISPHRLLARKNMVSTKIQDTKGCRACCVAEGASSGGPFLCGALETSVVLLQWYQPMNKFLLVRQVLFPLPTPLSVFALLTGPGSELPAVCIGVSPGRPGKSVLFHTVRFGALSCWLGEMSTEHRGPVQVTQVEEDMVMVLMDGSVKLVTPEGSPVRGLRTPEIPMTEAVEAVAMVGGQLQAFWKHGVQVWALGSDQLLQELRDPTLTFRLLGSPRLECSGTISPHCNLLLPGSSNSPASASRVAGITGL

Row | IC50 [nM] | Compound
1 | 10 to 100 | Cc1nc2ccc(NC(=O)c3c(Nc4cnc5c(c4C)NCCO5)cc[nH]c3=O)cc2s1 [Example 249, 4-((8-methyl-2,3-dihydro-1H-pyrido[2,3-b][1,4]oxazin-7-yl)amino)-N-(2-methylbenzo[d]thiazol-6-yl)-2-oxo-1,2-dihydropyridine-3-carboxamide]
2 | 10 to 100 | Cc1c(Nc2cc[nH]c(=O)c2C(=O)Nc2ccc3c(c2)CCC(=O)N3C)cnc2c1NCCO2 [Example 250, 4-((8-methyl-2,3-dihydro-1H-pyrido[2,3-b][1,4]oxazin-7-yl)amino)-N-(1-methyl-2-oxo-1,2,3,4-tetrahydroquinolin-6-yl)-2-oxo-1,2-dihydropyridine-3-carboxamide]
3 | ≤ 10 | CCC(=O)N1CCN(c2ccc(NC(=O)c3c(Nc4cnc5c(c4C)NCCO5)cc[nH]c3=O)cc2)CC1 [Example 251, 4-((8-methyl-2,3-dihydro-1H-pyrido[2,3-b][1,4]oxazin-7-yl)amino)-2-oxo-N-(4-(4-propionylpiperazin-1-yl)phenyl)-1,2-dihydropyridine-3-carboxamide]
4 | 10 to 100 | Cc1c(Nc2cc[nH]c(=O)c2C(=O)Nc2ccc3c(c2)CCC(=O)N3)cnc2c1NCCO2 [Example 252, 4-((8-methyl-2,3-dihydro-1H-pyrido[2,3-b][1,4]oxazin-7-yl)amino)-2-oxo-N-(2-oxo-1,2,3,4-tetrahydroquinolin-6-yl)-1,2-dihydropyridine-3-carboxamide]
5 | 100 to 1000 | COc1ccc(Oc2ccc(NC(=O)c3c(Nc4cnc5c(c4C)NCCO5)cc[nH]c3=O)cc2)cc1 [Example 253, N-(4-(4-methoxyphenoxy)phenyl)-4-((8-methyl-2,3-dihydro-1H-pyrido[2,3-b][1,4]oxazin-7-yl)amino)-2-oxo-1,2-dihydropyridine-3-carboxamide]
6 | 10 to 100 | Cc1c(Nc2cc[nH]c(=O)c2C(=O)Nc2ccc3c(c2)CCCN3)cnc2c1NCCO2 [Example 254, 4-((8-methyl-2,3-dihydro-1H-pyrido[2,3-b][1,4]oxazin-7-yl)amino)-2-oxo-N-(1,2,3,4-tetrahydroquinolin-6-yl)-1,2-dihydropyridine-3-carboxamide]
7 | 10 to 100 | Cc1c(Nc2cc[nH]c(=O)c2C(=O)Nc2ccc(-n3ccnc3)cc2)cnc2c1NCCO2 [Example 255, N-(4-(1H-imidazol-1-yl)phenyl)-4-((8-methyl-2,3-dihydro-1H-pyrido[2,3-b][1,4]oxazin-7-yl)amino)-2-oxo-1,2-dihydropyridine-3-carboxamide]

Further lines, the molecule ahead of its results:

Row | Compound | IC50 [nM]
8 | Cc1c(Nc2cc[nH]c(=O)c2C(=O)Nc2ccc(N3CC4CCC3CN4C)cc2)cnc2c1NCCO2 (stereo not drawn) [Example 235, 4-((8-methyl-2,3-dihydro-1H-pyrido[2,3-b][1,4]oxazin-7-yl)amino)-N-(4-(5-methyl-2,5-diazabicyclo[2.2.2]octan-2-yl)phenyl)-2-oxo-1,2-dihydropyridine-3-carboxamide] | ≤ 10
9 | Cc1c(Nc2cc[nH]c(=O)c2C(=O)Nc2ccc(N3C[C@@H]4C[C@H]3CN4C)cc2)cnc2c1NCCO2 [Example 236, 4-((8-methyl-2,3-dihydro-1H-pyrido[2,3-b][1,4]oxazin-7-yl)amino)-N-(4-((1S,4S)-5-methyl-2,5-diazabicyclo[2.2.1]heptan-2-yl)phenyl)-2-oxo-1,2-dihydropyridine-3-carboxamide] | 10 to 100
10 | Cc1c(Nc2cc[nH]c(=O)c2C(=O)Nc2ccc3cn[nH]c3c2)cnc2c1NCCO2 [Example 237, N-(1H-indazol-6-yl)-4-((8-methyl-2,3-dihydro-1H-pyrido[2,3-b][1,4]oxazin-7-yl)amino)-2-oxo-1,2-dihydropyridine-3-carboxamide] | 10 to 100
11 | Cc1c(Nc2cc[nH]c(=O)c2C(=O)Nc2ccc(N3CCN(CCC4CNC4)CC3)cc2)cnc2c1NCCO2 [Example 238, N-(4-(4-(2-(azetidin-3-yl)ethyl)piperazin-1-yl)phenyl)-4-((8-methyl-2,3-dihydro-1H-pyrido[2,3-b][1,4]oxazin-7-yl)amino)-2-oxo-1,2-dihydropyridine-3-carboxamide] | ≤ 10
12 | Cc1c(Nc2cc[nH]c(=O)c2C(=O)Nc2ccc3c(c2)N(C)C(=O)CO3)cnc2c1NCCO2 [Example 239, 4-((8-methyl-2,3-dihydro-1H-pyrido[2,3-b][1,4]oxazin-7-yl)amino)-N-(4-methyl-3-oxo-3,4-dihydro-2H-benzo[b][1,4]oxazin-6-yl)-2-oxo-1,2-dihydropyridine-3-carboxamide] | 100 to 1000
13 | Cc1c(Nc2cc[nH]c(=O)c2C(=O)Nc2ccc3c(c2)NCCO3)cnc2c1NCCO2 [Example 240, N-(3,4-dihydro-2H-benzo[b][1,4]oxazin-6-yl)-4-((8-methyl-2,3-dihydro-1H-pyrido[2,3-b][1,4]oxazin-7-yl)amino)-2-oxo-1,2-dihydropyridine-3-carboxamide] | 10 to 100
14 | Cc1c(Nc2cc[nH]c(=O)c2C(=O)Nc2ccc(N3CCN(C)C[C@H]3C)cc2)cnc2c1NCCO2 [Example 241, (R)-N-(4-(2,4-dimethylpiperazin-1-yl)phenyl)-4-((8-methyl-2,3-dihydro-1H-pyrido[2,3-b][1,4]oxazin-7-yl)amino)-2-oxo-1,2-dihydropyridine-3-carboxamide] | ≤ 10
15 | Cc1c(Nc2cc[nH]c(=O)c2C(=O)Nc2ccc(C(N)=O)cc2)cnc2c1NCCO2 [Example 242, N-(4-carbamoylphenyl)-4-((8-methyl-2,3-dihydro-1H-pyrido[2,3-b][1,4]oxazin-7-yl)amino)-2-oxo-1,2-dihydropyridine-3-carboxamide] | 10 to 100
16 | CC(=O)Nc1ccc(NC(=O)c2c(Nc3cnc4c(c3C)NCCO4)cc[nH]c2=O)cn1 [Example 243, N-(6-acetamidopyridin-3-yl)-4-((8-methyl-2,3-dihydro-1H-pyrido[2,3-b][1,4]oxazin-7-yl)amino)-2-oxo-1,2-dihydropyridine-3-carboxamide] | 100 to 1000
17 | Cc1c(Nc2cc[nH]c(=O)c2C(=O)Nc2ccc3c(c2)OCO3)cnc2c1NCCO2 [Example 244, N-(benzo[d][1,3]dioxol-5-yl)-4-((8-methyl-2,3-dihydro-1H-pyrido[2,3-b][1,4]oxazin-7-yl)amino)-2-oxo-1,2-dihydropyridine-3-carboxamide] | 10 to 100
18 | Cc1c(Nc2cc[nH]c(=O)c2C(=O)Nc2cccc(S(=O)(=O)CCO)c2)cnc2c1NCCO2 [Example 245, N-(3-((2-hydroxyethyl)sulfonyl)phenyl)-4-((8-methyl-2,3-dihydro-1H-pyrido[2,3-b][1,4]oxazin-7-yl)amino)-2-oxo-1,2-dihydropyridine-3-carboxamide] | 100 to 1000
19 | Cc1c(Nc2cc[nH]c(=O)c2C(=O)Nc2ccc3c(c2)NCCC3)cnc2c1NCCO2 [Example 246, 4-((8-methyl-2,3-dihydro-1H-pyrido[2,3-b][1,4]oxazin-7-yl)amino)-2-oxo-N-(1,2,3,4-tetrahydroquinolin-7-yl)-1,2-dihydropyridine-3-carboxamide] | 10 to 100
20 | Cc1c(Nc2cc[nH]c(=O)c2C(=O)Nc2ccc(N3CCC(C(N)=O)CC3)cc2)cnc2c1NCCO2 [Example 247, N-(4-(4-carbamoylpiperidin-1-yl)phenyl)-4-((8-methyl-2,3-dihydro-1H-pyrido[2,3-b][1,4]oxazin-7-yl)amino)-2-oxo-1,2-dihydropyridine-3-carboxamide] | ≤ 10
21 | Cc1c(Nc2cc[nH]c(=O)c2C(=O)Nc2ccc3ncsc3c2)cnc2c1NCCO2 [Example 248, N-(benzo[d]thiazol-6-yl)-4-((8-methyl-2,3-dihydro-1H-pyrido[2,3-b][1,4]oxazin-7-yl)amino)-2-oxo-1,2-dihydropyridine-3-carboxamide] | 10 to 100
